Measurements from patent US20260166159A1, “KRAS G12D DEGRADATION AGENT, AND PREPARATION METHOD AND USE THEREFOR” (LEADINGTAC PHARMACEUTICAL (SHAOXING) CO., LTD., priority 2022, published 2026).

What was measured:
Assay type in all cases: cell-based
[1] = tested on: KRAS G12D mutant human gastric cancer cell AGS; assay: 3D cell proliferation inhibition assay, AGS; settings: 168 h, 7 days, CTG
Text: (§1) The inhibitory effects of the compounds on 3D cell proliferation were investigated on KRAS G12D mutant human lung cancer cell A427, KRAS G12D mutant human gastric cancer cell AGS, KRAS G12D mutant human metastatic pancreatic cancer cell AsPc-1, KRAS G12D mutant human pancreatic cancer cell Panc 04.03, KRAS G12D mutant human pancreatic cancer cell HPAC, KRAS G12V mutant human lung squamous cell carcinoma cell SW900, and KRAS WT human gastric cancer cell MKN1. The specific procedures were as follows:
(§2) 10 μL of each compound solution diluted in a gradient was added to corresponding wells of a 96-well low-adsorption microplate (PerkinElmer), so that the final concentrations of the test compounds in the reaction system were in a range of 10000-0.026 nM. The final concentration of DMSO was 0.2%. Then 90 µL of cells were correspondingly seeded into each well to achieve a cell density of 5×10^2 cells/well (the cell density of SW900 was 5×10^1 cells/well, and the cell density of MKN1 was 1×10^3 cells/well). In addition to test wells for the test compounds, both a DMSO control well and a medium control well were set, with the DMSO control well containing DMSO and cells and the medium well containing only a medium. After the sample loading, the 96-well low-adsorption microplate was incubated in an incubator at 37° C. with 5% carbon dioxide for 7 days. After 7 days, the microplate was taken out, and 100 μL of CTG reagent (Promega) was added to each well. The plate was incubated at room temperature for 60 min and read on a microplate reader EnVision by the chemiluminescence program. The inhibition rates of the compounds at each concentration were calculated using the formula for the percentage inhibition of cell proliferation: inhibition rate %=(mean value of DMSO control group−single concentration reading value of compound)/(mean value of DMSO control group−mean value of medium control group)×100. Then non-linear curve fittings for logarithmic concentration-inhibition rate were performed by GraphPad Prism 8, and the IC50 values of the compounds were obtained (Table 5).

KRAS-G12D [2] = molecular target: T1, KRAS-G12D (Homo sapiens, UniProt P01116, G12D); assay: KRAS-G12D degradation assay (Western Blot), A-427 cells; settings: A427 cells, 24 h; for Dmax: A-427
T1 construct: endogenous in cells; host or cells: A-427 (ATCC), AGS, AsPc-1, Panc 04.03
T1 sequence (P01116 1-188 isoform P01116-2 G12D): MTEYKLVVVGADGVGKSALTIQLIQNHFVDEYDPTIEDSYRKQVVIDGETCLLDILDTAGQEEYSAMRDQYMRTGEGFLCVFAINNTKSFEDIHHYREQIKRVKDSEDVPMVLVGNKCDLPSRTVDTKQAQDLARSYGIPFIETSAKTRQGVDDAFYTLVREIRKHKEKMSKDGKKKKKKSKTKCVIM
Protocol: (§3) The degradation effects of the compounds on KRAS-G12D were investigated on KRAS G12D mutant human lung cancer cell A-427 (ATCC), KRAS G12D mutant human gastric cancer cell AGS, KRAS G12D mutant human metastatic pancreatic cancer cell AsPc-1, and KRAS G12D mutant human pancreatic adenocarcinoma cell Panc 04.03. The specific procedures were as follows: 0.95 mL of cells were seeded into each well of a 24-well cell culture plate to achieve a cell density of 5×10^5 cells/well; and the cell plate was incubated in an incubator at 37° C. with 5% CO2 overnight. Then 50 μL of the compound solution after dilution was added to each of the wells with the corresponding cells, so that the final concentration of the compound was in a range of 0.03-3000 nM. The final concentration of DMSO was 0.25%. After the compounds were added, the cell plate was incubated in the incubator at 37° C. with 5% CO2 for 24 h. The culture medium in the 24-well cell culture plate was removed, and the plate was washed twice with 1×PBS (KeyGEN). 120 μL of RIPA (strong) lysis buffer (Beyotime) supplemented with 1 mM phenylmethylsulfonyl fluoride, a protease inhibitor mixture (Beyotime), and a protease phosphatase inhibitor mixture (Beyotime) was added to lyse adherent A-427 cells at the bottom of the cell culture plate. After the plate was left to stand on ice for 30 min, the protein lysate in each well was transferred to a 1.5 mL centrifuge tube and centrifuged at 15000 g for 20 min at 4° C. The cell lysate supernatants after centrifugation were cryopreserved in a refrigerator at −80° C. for later use.
(§4) After the samples of the cell lysate supernatants that had been prepared were thawed from the refrigerator at −80° C., the total protein concentrations of the cell lysates were determined using a BCA protein quantification kit (Tiangen). The total protein concentrations of the samples were then adjusted to 0.5 μg/μL with PBS and 5×SDS-PAGE protein loading buffer (Beyotime), and the samples were incubated in a water bath at 100° C. for 15 min. The samples were then incubated in an ice bath for 5 min and centrifuged at 14000 g for 1 min at 4° C., and the supernatants were mixed well as loading samples for the Western Blot assay. The samples were loaded into wells of a 10% precast gel (KeyGEN) with a loading volume of 10 μL (total protein: 5 μg), a sufficient Tris-MOPS-SDS running buffer (Adamas) was added, and then electrophoresis was performed at a constant voltage of 120 V for 55 min. After the electrophoresis, the proteins on the gel were transferred to PVDF membranes at a constant current of 250 mA for 55 min. After the membrane transfer, the PVDF membranes were incubated in 1× Quick Block blocking buffer (Beyotime) at room temperature for 30 min. After the blocking, the PVDF membranes were separately incubated at 4° C. overnight with the KRAS antibody (Abcam) diluted in a ratio of 1:1000 and the […] antibody (Abcam) diluted in a ratio of 1:2000 in 5% BSA as the diluent, and then washed with 1×TBST buffer (2.4 g of Tris, 8.8 g of NaCl, 1.5 mL of Tween 20, with pH adjusted to 7.4, with the volume brought to 1 L) 3 times for 10 min/time. The membranes were incubated with a secondary antibody (Abcam) diluted in 5% BSA at room temperature for 2 h, and then washed with 1×TBST buffer 3 times for 10 min/time. Finally, the membranes were incubated with Clarity Western ECL Substrate (BIO-RAD) for 5 min for luminescence and color development, and a ChemiScope 6200 Touch chemiluminescence imaging system (Clinx) was used for color development and protein mapping. Gray value analysis of the protein maps was performed using the chemiluminescence analysis software (Clinx). The gray correction value for each sample was calculated using the formula: gray correction value=(gray value of target protein/gray value of corresponding internal reference)×10^3. Then degradation rates were calculated by comparison with the gray correction value of the control group. […]

[3] = tested on: KRAS G12D mutant human lung cancer cell A427; assay: 3D cell proliferation inhibition assay, A427; settings: A-427, 168 h, A427, 7 days, CTG
Text: as §1, §2

KRAS-G12D [4] = molecular target: T1, KRAS-G12D; assay: KRAS-G12D degradation assay (Western Blot), AsPc-1 cells; settings: for DC50: 24 h; for Dmax: ASPC1, 24 h
Protocol: as §3, §4

## CCc1cccc2cc(O)cc(-c3ncc4c(N5CC6CCC(C5)N6)nc(NCC5(CN6CCN(CC7CCC8(CC7)CCN(C(=O)c7ccc(Cl)c(N9CCC(=O)NC9=O)c7)CC8)CC6)CC5)nc4c3F)c12 [Example 47, 1-(5-(9-((4-((1-(((4-(3,8-diazabicyclo[3.2.1]octan-3-yl)-7-(8-ethyl-3-hydroxynaphthalen-1-yl)-8-fluoropyrido[4,3-d]pyrimidin-2-yl)amino)methyl)cyclopropyl)methyl)piperazin-1-yl)methyl)-3-azaspiro [5.5]undecane-3-carbonyl)-2-chlorophenyl)dihydropyrimidine-2,4(1H,3H)-dione]
[1]; class symbols
  IC50: 50 to 100 nM
KRAS-G12D [2]; class symbols
  DC50: 100 to 500 nM
  Dmax: 50 to 80%
[3]; class symbols
  IC50: 50 to 100 nM

## C#Cc1c(F)ccc2cc(O)cc(-c3ncc4c(N5CC6CCC(C5)N6)nc(OCC5(CN6CCN(CC7CCC8(CC7)CCN(C(=O)c7ccc(OC(F)(F)F)c(N9CCC(=O)NC9=O)c7)CC8)CC6)CC5)nc4c3F)c12 [Example 39, 1-(5-(9-((4-((1-(((4-(3,8-diazabicyclo[3.2.1]octan-3-yl)-7-(8-ethynyl-7-fluoro-3-hydroxynaphthalen-1-yl)-8-fluoropyrido[4,3-d]pyrimidin-2-yl)oxy)methyl)cyclopropyl)methyl)piperazin-1-yl)methyl)-3-azaspiro[5.5]undecane-3-carbonyl)-2-(trifluoromethoxy)phenyl)dihydropyrimidine-2,4(1H,3H)-dione]
[1]; class symbols
  IC50: ≤ 50 nM
KRAS-G12D [2]; class symbols
  DC50: ≤ 50 nM
  Dmax: 50 to 80%
[3]; class symbols
  IC50: 100 to 500 nM

## C#Cc1c(F)ccc2cc(O)cc(-c3ncc4c(N5CC6CCC(C5)N6)nc(OC[C@H](O)CN5CCN(CC6CCC7(CC6)CCN(C(=O)c6ccc(OC)c(N8CCC(=O)NC8=O)c6)CC7)CC5)nc4c3F)c12 [Example 191, 1-(5-(9-((4-((R)-3-((4-(3,8-diazabicyclo[3.2.1]octan-3-yl)-7-(8-ethynyl-7-fluoro-3-hydroxynaphthalen-1-yl)-8-fluoropyrido[4,3-d]pyrimidin-2-yl)oxy)-2-hydroxypropyl)piperazin-1-yl)methyl)-3-azaspiro[5.5]undecane-3-carbonyl)-2-methoxyphenyl)dihydropyrimidine-2,4(1H,3H)-dione]
KRAS-G12D [4]
  DC50: 149 nM
  Dmax: 81.9%

## C#Cc1c(F)ccc2cc(O)cc(-c3ncc4c(N5CC6CCC(C5)N6)nc(SCC5(CN6CCN(CC7CCC8(CC7)CCN(C(=O)c7ccc(OC)c(N9CCC(=O)NC9=O)c7)CC8)CC6)CC5)nc4c3F)c12 [Example 54, 1-(5-(9-((4-((1-(((4-(3,8-diazabicyclo[3.2.1]octan-3-yl)-7-(8-ethynyl-7-fluoro-3-hydroxynaphthalen-1-yl)-8-fluoropyrido[4,3-d]pyrimidin-2-yl)thio)methyl)cyclopropyl)methyl)piperazin-1-yl)methyl)-3-azaspiro[5.5]undecane-3-carbonyl)-2-methoxyphenyl)dihydropyrimidine-2,4(1H,3H)-dione]
[1]; class symbols
  IC50: ≤ 50 nM
[3]; class symbols
  IC50: ≤ 50 nM

## C#Cc1c(F)ccc2cc(O)cc(-c3ncc4c(N5CC6CCC(C5)N6)nc(OCCN5CCN(CC6CCC7(CC6)CCN(C(=O)c6ccc(Cl)c(N8CCC(=O)NC8=O)c6)CC7)CC5)nc4c3F)c12 [Example 60, 1-(5-(9-((4-(2-((4-(3,8-diazabicyclo[3.2.1]octan-3-yl)-7-(8-ethynyl-7-fluoro-3-hydroxynaphthalen-1-yl)-8-fluoropyrido[4,3-d]pyrimidin-2-yl)oxy)ethyl)piperazin-1-yl)methyl)-3-azaspiro[5.5]undecane-3-carbonyl)-2-chlorophenyl)dihydropyrimidine-2,4(1H,3H)-dione]
[1]; class symbols
  IC50: ≤ 50 nM
[3]; class symbols
  IC50: 100 to 500 nM

## C#Cc1c(F)ccc2cc(O)cc(-c3ncc4c(N5CC6CCC(C5)N6)nc(OC[C@@H](CN5CCN(CC6CCC7(CC6)CCN(C(=O)c6ccc(C)c(N8CCC(=O)NC8=O)c6)CC7)CC5)OC)nc4c3F)c12 [Example 172, 1-(5-(9-((4-((R)-3-((4-(3,8-diazabicyclo[3.2.1]octan-3-yl)-7-(8-ethynyl-7-fluoro-3-hydroxynaphthalen-1-yl)-8-fluoropyrido[4,3-d]pyrimidin-2-yl)oxy)-2-methoxypropyl)piperazin-1-yl)methyl)-3-azaspiro[5.5]undecane-3-carbonyl)-2-methylphenyl)dihydropyrimidine-2,4(1H,3H)-dione]
KRAS-G12D [4]
  DC50: 113 nM
  Dmax: 55%

## CCc1cccc2cc(O)cc(-c3ccc4c(N5CC6CCC(C5)N6)nc(OCC5(CN6CCN(CC7CCC8(CC7)CCN(C(=O)c7ccc(C)c(N9CCC(=O)NC9=O)c7)CC8)CC6)CC5)nc4c3F)c12 [Example 70, 1-(5-(9-((4-((1-(((4-(3,8-diazabicyclo[3.2.1]octan-3-yl)-7-(8-ethyl-3-hydroxynaphthalen-1-yl)-8-fluoroquinazolin-2-yl)oxy)methyl)cyclopropyl)methyl)piperazin-1-yl)methyl)-3-azaspiro[5.5]undecane-3-carbonyl)-2-methylphenyl)dihydropyrimidine-2,4(1H,3H)-dione]
[1]; numeric values
  IC50: 15.5 nM
KRAS-G12D [2]; numeric values
  DC50: 14.6 nM
  Dmax: 87.3%

## C#Cc1c(F)ccc2cc(O)cc(-c3ncc4c(N5CC6CCC(C5)N6)nc(OCC5(CN6CCC(CCOCC7(OC)CCN(C(=O)c8ccc(Cl)c(N9CCC(=O)NC9=O)c8)CC7)CC6)CC5)nc4c3F)c12 [Example 67, 1-(5-(4-((2-(1-((1-(((4-(3,8-diazabicyclo[3.2.1]octan-3-yl)-7-(8-ethynyl-7-fluoro-3-hydroxynaphthalen-1-yl)-8-fluoropyrido[4,3-d]pyrimidin-2-yl)oxy)methyl)cyclopropyl)methyl)piperidin-4-yl)ethoxy)methyl)-4-methoxypiperidine-1-carbonyl)-2-chlorophenyl)dihydropyrimidine-2,4(1H,3H)-dione]
[1]; numeric values
  IC50: 33.6 nM
[3]; numeric values
  IC50: 36.5 nM
